Laboratory results from article PMC7822874, “Chemoprotective antimalarials identified through quantitative high-throughput screening of Plasmodium blood and liver stage parasites” (Scientific Reports, 2021).
Read-outs that look alike come from different tables or passages of the source.

Experiments:
HepG2-A16-CD81EGFP cells = conditions: for HepG2 1uM growth rep1 / HepG2 1uM growth rep2: HepG2, 1 µM compound treatment (10 mM stocks); for HepG2 1uM growth rep1 / HepG2 3uM growth rep1: replicate 1, normalized; for HepG2 1uM growth rep2 / HepG2 3uM growth rep2: replicate 2, normalized; for HepG2 3uM growth rep1 / HepG2 3uM growth rep2: HepG2, 3 µM compound treatment (10 mM stocks)
[1] = tested on: Plasmodium falciparum Dd2 asexual blood stage parasites; assay: microbe, parasite or virus in culture; parameters: species or system Plasmodium falciparum Dd2 in human erythrocytes; single determination (one 11-point concentration-response curve); conditions: Plasmodium falciparum, DD2, Erythrocyte, 72 h; read-out: AC50
[2] = tested on: P. berghei-ANKA-GFP-LucCON liver stage parasites in HepG2-A16-CD81EGFP cells; assay: P. berghei liver stage Pb-Luc assay, Method 1 (UCSD, 1536-well); type: cell-based, Plasmodium berghei; conditions: Plasmodium berghei, 48 h
in vitro = conditions: human, HepG2-A16-CD81EGFP cells, uninfected
[3] = P. berghei liver stage, 1 µM compound treatment (10 mM stocks), replicate 1, normalized, average of 2 wells on a 1536 well plate, read-out: PbLuc 1uM growth rep1
[4] = P. berghei liver stage, 1 µM compound treatment (10 mM stocks), replicate 2, normalized, average of 2 wells on a 1536 well plate, read-out: PbLuc 1uM growth rep2
[5] = P. berghei liver stage, 3 µM compound treatment (10 mM stocks), replicate 1, normalized, average of 2 wells on a 1536 well plate, read-out: PbLuc 3uM growth rep1
[6] = P. berghei liver stage, 3 µM compound treatment (10 mM stocks), replicate 2, normalized, average of 2 wells on a 1536 well plate, read-out: PbLuc 3uM growth rep2
[7] = nominal 1 uM (10 mM stock), […] for 15 mM, 1.2 uM for 12 mM, 2 uM for 20 mM stock, average of 2 wells, 1536-well plate, repeat 1, read-out: Pb-Luc signal, 1 uM, repeat 1
[8] = nominal 1 uM (10 mM stock), […] for 15 mM, 1.2 uM for 12 mM, 2 uM for 20 mM stock, average of 2 wells, 1536-well plate, repeat 2, read-out: Pb-Luc signal, 1 uM, repeat 2
[9] = nominal 1 uM (10 mM stock), […] for 15 mM, 1.2 uM for 12 mM, 2 uM for 20 mM stock, average of 2 wells, 1536-well plate, repeat 3, read-out: Pb-Luc signal, 1 uM, repeat 3
[10] = nominal 3 uM (10 mM stock), 4.5 uM for 15 mM, 3.6 uM for 12 mM, 6 uM for 20 mM stock, average of 2 wells, 1536-well plate, repeat 1, read-out: Pb-Luc signal, 3 uM, repeat 1
[11] = nominal 3 uM (10 mM stock), 4.5 uM for 15 mM, 3.6 uM for 12 mM, 6 uM for 20 mM stock, average of 2 wells, 1536-well plate, repeat 2, read-out: Pb-Luc signal, 3 uM, repeat 2
[12] = nominal 3 uM (10 mM stock), 4.5 uM for 15 mM, 3.6 uM for 12 mM, 6 uM for 20 mM stock, average of 2 wells, 1536-well plate, repeat 3, read-out: Pb-Luc signal, 3 uM, repeat 3
[13] = nominal 1 uM (10 mM stock), […] for 15 mM, 1.2 uM for 12 mM, 2 uM for 20 mM stock, average of 2 wells, repeat 2
[14] = nominal 3 uM (10 mM stock), 4.5 uM for 15 mM, 3.6 uM for 12 mM, 6 uM for 20 mM stock, average of 2 wells, repeat 2

Structure (SMILES) | AC50 [1] [nM] | viability at 48 h, 1 µM (in vitro) [%] | viability at 48 h, 3 µM (in vitro) [%] | activity at 1 µM [2, 7] [%] | activity at 1 µM [2, 8] [%] | activity at 1 µM [2, 9] [%] | activity at 3 µM [2, 10] [%] | activity at 3 µM [2, 11] [%] | activity at 3 µM [2, 12] [%] | HepG2 viability signal, 1 uM, repeat 2 (HepG2-A16-CD81EGFP cells; [13]) [%] | HepG2 viability signal, 3 uM, repeat 2 (HepG2-A16-CD81EGFP cells; [14]) [%] | further results
COc1ccc([C@@]2(C(C)C)ON(c3ccccc3C(F)(F)F)C2=O)cc1 [MLS002206606-01] | 4220 | – | – | – | – | – | – | – | – | – | – | HepG2 1uM growth rep1 (HepG2-A16-CD81EGFP cells; average of 2 wells): 102%; HepG2 1uM growth rep2 (HepG2-A16-CD81EGFP cells; average of 2 wells): 93%; HepG2 3uM growth rep1 (HepG2-A16-CD81EGFP cells; average of 2 wells): 83%; HepG2 3uM growth rep2 (HepG2-A16-CD81EGFP cells; average of 2 wells): 85%; activity at 1 µM [2, 3]: 98%; activity at 1 µM [2, 4]: 100%; activity at 3 µM [2, 5]: 88%; activity at 3 µM [2, 6]: 122%
CCn1cnc2c(Nc3cc(F)cc(F)c3)nc(C#N)nc21 [MLS002471782-01] | 2370 | – | – | – | – | – | – | – | – | – | – | HepG2 1uM growth rep1 (HepG2-A16-CD81EGFP cells; average of 2 wells): 88%; HepG2 1uM growth rep2 (HepG2-A16-CD81EGFP cells; average of 2 wells): 82%; HepG2 3uM growth rep1 (HepG2-A16-CD81EGFP cells; average of 2 wells): 83%; HepG2 3uM growth rep2 (HepG2-A16-CD81EGFP cells; average of 2 wells): 89%; activity at 1 µM [2, 3]: 155%; activity at 1 µM [2, 4]: 128%; activity at 3 µM [2, 5]: 149%; activity at 3 µM [2, 6]: 187%
CCC(=O)N1CCc2cc(Br)cc([S+](=O)([O-])N3CCCC(C(=O)Nc4ccc(OC)c(Cl)c4)C3)c21 (centres unmarked) [NCGC00106201-01] | – | 90.7 | 82.3 | 76.1 | 86.6 | 75.8 | 53.5 | 100 | 60 | – | – | HepG2 viability signal, 1 uM, repeat 2 (HepG2-A16-CD81EGFP cells): 91.30%; HepG2 viability signal, 3 uM, repeat 2 (HepG2-A16-CD81EGFP cells): 86.54%
COc1ccc(C2Sc3ccccc3N=C3C2=C(O)c2ccccc23)c(OC)c1OC (centres unmarked) [NCGC00108825-01] | 750 | – | – | 80.6 | 95.6 | 53.5 | 34.1 | 70.7 | 74.5 | 77.27 | 66.08 | HepG2 viability signal, 1 uM, repeat 1 (HepG2-A16-CD81EGFP cells; nominal 1 uM (10 mM stock), […] for 15 mM, 1.2 uM for 12 mM, 2 uM for 20 mM stock, average of 2 wells, repeat 1): 40.50%; HepG2 viability signal, 3 uM, repeat 1 (HepG2-A16-CD81EGFP cells; nominal 3 uM (10 mM stock), 4.5 uM for 15 mM, 3.6 uM for 12 mM, 6 uM for 20 mM stock, average of 2 wells, repeat 1): 21.41%
CCN(c1ccccc1)[S+](=O)([O-])c1ccc(NC(=O)c2cc(=O)c3cc(C)ccc3o2)cc1 [NCGC00115963-01] | – | – | – | – | – | – | – | – | – | – | – | HepG2 viability, fourth HepG2 column (HepG2-A16-CD81EGFP cells): 95.01%; HepG2 viability, second HepG2 column (HepG2-A16-CD81EGFP cells): 97.84%; HepG2 viability, third HepG2 column (HepG2-A16-CD81EGFP cells): 94.20%; viability at 48 h (in vitro): 97.5%
COc1ccc(CN2CCCC3(C2)C(NC2CCCCC2)=NC(=O)N3c2cc(F)cc(F)c2)cc1 (centres unmarked) [NCGC00373972-01] | – | 107 | 105 | 89.2 | 98.6 | 137 | 120 | 103 | 87.7 | 102.91 | 99.86 | –
O=C(O)c1ccc(-c2nc3cnccc3[nH]2)cc1 [NCGC00375713-01] | – | 105 | 104 | 93.2 | 89.1 | 137 | 91.8 | 93.1 | 98.5 | 104.68 | 103.76 | –
O=C1NCc2ccccc2CC12CCCN(Cc1ccccc1)C2 (centres unmarked) [NCGC00377595-01] | – | 104 | 104 | 90.7 | 117 | 140 | 93.9 | 108 | 117 | 103.34 | 104.13 | –
C[C@H]1[C@@H]2[C@H]3OC(=O)[C@@H](C)[C@@H]3CC[C@@]2(C)CC[C@@H]1NC(=O)CC(C)(C)C [NCGC00392703-01] | – | 95.8 | 99 | 105 | 129 | 103 | 126 | 109 | 99.6 | 102.40 | 102.42 | –
